From patent US20260028584A1, “METHOD FOR EVALUATING AGGREGATION-SUPPRESSING ACTIVITY OR AGGREGATION-PROMOTING ACTIVITY ON AGGREGATING PROTEIN USING ORGANOID, AND METHOD FOR PRODUCING ORGANOID” (KANEKA CORPORATION, priority 2023, published 2026)

Biological target: T1, amyloid β protein (QD-Aβ / Aβ42) deposited on and/or in cerebral organoid (Homo sapiens, UniProt P05067)
T1 construct: To a reagent bottle of Aβ1-42 0.5 mg (manufactured by Peptide Institute, Inc.: Cat No. 4394v); purchased Peptide Institute, Inc. 4394v; host or cells: synthetic peptide, added to the culture of a cerebral organoid derived from human iPS cells (HPS08554)
T1 sequence (P05067 672-713): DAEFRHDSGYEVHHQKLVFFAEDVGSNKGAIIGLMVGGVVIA
Test: Aβ deposition suppression on cerebral organoid with quantum dot-modified amyloid β (QD-Aβ), fluorescence image analysis
Format: cell-based
Conditions: rosmarinic acid 50 μM; QD-Aβ 30 nM, artificial Aβ 10 μM; human iPS cell-derived cerebral organoid; 24 hours at 37° C.
Method: An end of a tip for 1000 μL was cut with sterilized scissors, and the organoid grown to a diameter of 1 mm or larger prepared in Example 1 was sucked so as not to collapse, and transferred to a U-bottom 96-well plate. […]
The next day, the culture supernatant was completely removed so as not to suck the organoid, and after 150 μL of a fresh NbM medium was added, the cultured organoid was observed and photographed using a fluorescence microscope.
Using a fluorescent microscope (BZ-X800 manufactured by Keyence Corporation), the cultured organoid in Example 2 was photographed in a bright field at high resolution with an exposure time of 1/500 s to 1/2000 s, or at high sensitivity with an exposure time of 1/2000 s to 1/5000 s, using a Z stack with 20 μm intervals. […] Thereafter, in order to observe the deposition of quantum dot-modified amyloid β on the cultured organoid, red fluorescence was observed using a TRITC lens at high sensitivity with an exposure time of ¼ s to 1/8.5 s, and images were obtained according to the above procedure.
Each of the images obtained above was analyzed as follows. Specifically, the hybrid cell count function was used to read the organoid images used in the various tests, select the bright field, and then set the extraction selection to OFF. The threshold of the read bright-field images was set to 200, and the organoid area was calculated (organoid surface area). […]

O=C(/C=C/c1ccc(O)c(O)c1)O[C@H](Cc1ccc(O)c(O)c1)C(=O)O [rosmarinic acid, Rosmarinic acid]
Aβ deposition suppression rate: less than 5.0%
